From patent US20090197900A1, “METHODS OF TREATING HEART FAILURE AND RENAL DYSFUNCTION IN INDIVIDUALS WITH AN ADENOSINE A1 RECEPTOR ANTAGONIST” (priority 2007, published 2009)

Tested on: subjects with acute CHF and renal impairment having BNP levels above 500 pg/mL
Assay: Separate analysis of the Example 1 trial for subjects with BNP levels exceeding 500 pg/mL (BNP subgroup)
Assay type: in vivo, human
Conditions: 30 mg KW-3902, FIG. 14
Experimental: More than 300 subjects hospitalized due to acute CHF requiring intravenous diuretic therapy to treat fluid overload, and presenting with creatinine clearance values between 20 to 80 mL/min were identified. The subjects were randomized to receive either placebo, or 10 mg, 20 mg or 30 mg intravenous KW-3902 per day. The subjects' BNP levels, NT-Pro-BNP, serum creatinine, weight, and NYHA Class were measured.
On day 1, KW-3902 (or placebo) was co-administered with intravenous furosemide (LASIX™). The specified dose of KW-3902 (or placebo) was infused over a four hour time period. Subjects received therapy for up to three days. Serum creatinine, weight, dyspnea, and worsening heart failure were assessed daily by the investigator on days 1 through 14. Worsening heart failure was investigator determined and required an increase in dose or reinstitution of LASIX, mechanical respiratory or circulatory assist measures, administration of intravenous positive […], or administration of intravenous vasodilators.
To compare the therapeutic effect of KW-3902 on individuals with different levels of BNP and or NT-Pro-BNP, the results of the trial discussed in Example 1 were separately analyzed to distinguish subjects with BNP levels exceeding 500 pg/mL. Approximately 75% of the subjects described in Example 1 fell within the subgroup having BNP levels above 500 pg/mL. […]

With CCCn1c(=O)c2[nH]c(C34CC5CC(CC3C5)C4)nc2n(CCC)c1=O [KW-3902, 8-(3-noradamantyl)-1,3-dipropylxanthine] the “individuals characterized as modified "Success"” value was “greater than 65%”.
